This note sets out measurements from ChEMBL document CHEMBL3228022, “Synthesis of 2,3,4,4a,5,9b-hexahydro-1H-pyrido[4,3-b]indole derivatives and their central nervous system activities” (1979).

Calls of active or inactive are those of the source. The calls are words filed in the database; no cut-off is given here.

Assay [1] deals with Rattus norvegicus. In words: Neuroleptic activity in Wistar HLA rat assessed as inhibition of methamphetamine-induced stereotyped behavior at 5 mg/kg, ip administered 20 mins before methamphetamine challenge measured every 30 mins for 3 hrs followed by every 1 hr for further 3 hrs. The assay is classed as functional. Further details: Activity: scale not given: the % may be the effect or the level left. Particulars: route intraperitoneal.

The subject of assay [2] is Rattus norvegicus. In words: Neuroleptic activity in Wistar HLA rat assessed as inhibition of methamphetamine-induced stereotyped behavior at 2 mg/kg, ip administered 20 mins before methamphetamine challenge measured every 30 mins for 3 hrs followed by every 1 hr for further 3 hrs. The assay is classed as functional. Further details: Activity: scale not given: the % may be the effect or the level left. Particulars: route intraperitoneal.

Assay [3] has as its system Rattus norvegicus. In words: Neuroleptic activity in Wistar HLA rat assessed as inhibition of methamphetamine-induced stereotyped behavior at 10 mg/kg, ip administered 20 mins before methamphetamine challenge measured every 30 mins for 3 hrs followed by every 1 hr for further 3 hrs. Further details: Activity: scale not given: the % may be the effect or the level left. Type of assay: functional. The conditions noted are these: route intraperitoneal; for inhibition in vivo at 10 mg/kg: Rattus norvegicus, Wistar HLA, ip.

Assay [4] has as its system Rattus norvegicus. Briefly: Neuroleptic activity in Wistar HLA rat assessed as inhibition of methamphetamine-induced stereotyped behavior at 1 mg/kg, ip administered 20 mins before methamphetamine challenge measured every 30 mins for 3 hrs followed by every 1 hr for further 3 hrs. The arrangement: Activity: scale not given: the % may be the effect or the level left. The conditions noted are these: route intraperitoneal. Type of assay: functional.

Assay [5] concerns Mus musculus. In words: Neuroleptic activity in STD-ddy mouse assessed as catalepsy at 100 mg/kg, po measured up to 30 secs. The assay is classed as functional, organism-based. The arrangement: dose 100 mg/kg.
The test system of assay [6] is Mus musculus. In words: Neuroleptic activity in STD-ddy mouse assessed as inhibition of locomotion at 100 mg/kg, po measured for 3 mins. The assay is classed as functional. Particulars: 0.05 h.
Assay [7] relates to Mus musculus. Briefly: Neuroleptic activity in STD-ddy mouse assessed as muscle relaxation at 100 mg/kg, po after 20 mins. Further details: dose 100 mg/kg. The assay is classed as functional, organism-based.
Assay [8] relates to Mus musculus. In words: Neuroleptic activity in STD-ddy mouse assessed as inhibition of locomotion at 10 mg/kg, po measured for 3 mins. The assay is classed as functional. The conditions noted are these: 0.05 h.

Take `Cc1ccc2[nH]c3c(c2c1)CN(CCCC(=O)c1ccc(F)cc1)CC3.Cl`: the Activity in the assay with Rattus norvegicus [1], in the assay on Rattus norvegicus [2], in the assay on Rattus norvegicus [3] and with Rattus norvegicus [4] was 0% each time.
As usually defined, the inhibition in vivo is the drop in the measured response relative to a control, in per cent. Consider `CCN1CC[C@H]2Nc3ccc(C)cc3[C@H]2C1` (mixture of isomers), for which, in the assay with Mus musculus [5], the result was inactive. In addition, in the assay on Mus musculus [6], the inhibition in vivo at 100 mg/kg amounted to 54.7%.
Consider `Cc1ccc2c(c1)[C@H]1CN(CCO)CC[C@H]1N2` (relative stereo), for which the outcome with Mus musculus [7] and in the assay on Mus musculus [5] was inactive. Also, the inhibition in vivo at 100 mg/kg in the assay with Mus musculus [6] was determined as 30.7%.
For `CC(=O)CCN1CC[C@H]2Nc3ccc(C)cc3[C@H]2C1` (relative stereo), the result in the assay with Mus musculus [7] and in the assay with Mus musculus [5] was inactive. Moreover, the inhibition in vivo at 100 mg/kg in the assay on Mus musculus [6] stood at 38.8%.
For `Cc1ccc2c(c1)[C@H]1CN(CCCN(C)C)CC[C@H]1N2` (relative stereo), the outcome with Mus musculus [7] and in the assay with Mus musculus [5] was inactive. For the same compound, the inhibition in vivo at 100 mg/kg in the assay with Mus musculus [6] was found to be 12.3%.
As to `Cc1ccc2c(c1)[C@H]1CN(Cc3ccccc3)CC[C@H]1N2` (relative stereo), the outcome in the assay on Mus musculus [7] and with Mus musculus [5] was inactive. Further, the inhibition in vivo at 100 mg/kg in the assay with Mus musculus [6] worked out at 35.3%.
With `Cc1ccc2c(c1)[C@H]1CN(CC(=O)c3ccccc3)CC[C@H]1N2` (relative stereo), the result in the assay with Mus musculus [7] and with Mus musculus [5] was inactive. Further, the inhibition in vivo at 100 mg/kg with Mus musculus [6] amounted to 29.8%.
In the case of `Cc1ccc2c(c1)[C@H]1CN(CCCC(c3ccc(F)cc3)c3ccc(F)cc3)CC[C@H]1N2` (relative stereo), the outcome in the assay on Mus musculus [7] was inactive. In the assay with Mus musculus [8], the inhibition in vivo at 10 mg/kg is -73%. Further, in the assay with Mus musculus [6], the inhibition in vivo at 100 mg/kg was found to be 90.7%.
In the case of `Cl.O=C(CCCN1CC[C@H]2Nc3ccccc3[C@H]2C1)c1ccc(F)cc1` (relative stereo), the Activity with Rattus norvegicus [1], in the assay on Rattus norvegicus [2] and in the assay on Rattus norvegicus [4] was 0% throughout. The inhibition in vivo at 10 mg/kg with Mus musculus [8] was -6%; with Rattus norvegicus [3], 25%. Besides, the inhibition in vivo at 100 mg/kg in the assay on Mus musculus [6] came out at 77.7%.
As to `Cl.O=C(CCCN1CC[C@H]2Nc3ccc(F)cc3[C@H]2C1)c1ccc(F)cc1` (relative stereo), the inhibition in vivo at 5 mg/kg in the assay with Rattus norvegicus [1] (Rattus norvegicus, Wistar HLA, ip) was 25%. The Activity in the assay with Rattus norvegicus [2] and with Rattus norvegicus [4] was 0% each time. Moreover, the inhibition in vivo at 10 mg/kg was determined as 47.2% with Mus musculus [8] and 50% in the assay on Rattus norvegicus [3]. Besides, in the assay on Mus musculus [6], the inhibition in vivo at 100 mg/kg is 91.2%.
For the compound `CC(=O)N1c2ccc(C)cc2[C@H]2CN(CCCC(=O)c3ccc(F)cc3)CC[C@H]21` (relative stereo), the result with Mus musculus [7] and with Mus musculus [5] was inactive. The inhibition in vivo at 100 mg/kg in the assay on Mus musculus [6] is 21.7%.
With `Fc1ccc2c(c1)[C@H]1CN(Cc3ccccc3)CC[C@@H]1N2` (relative stereo), the result in the assay with Mus musculus [7] and in the assay with Mus musculus [5] was inactive. In addition, the inhibition in vivo at 100 mg/kg in the assay with Mus musculus [6] was found to be 76.1%.
`Cc1ccc2c(c1)[C@H]1CN(Cc3ccccc3)CC[C@@H]1N2` (relative stereo): the result in the assay with Mus musculus [7] was inactive. Also, the inhibition in vivo at 100 mg/kg in the assay on Mus musculus [6] is 17.9%.
On to `Cc1ccc2c(c1)[C@H]1CN(C)CC[C@@H]1N2` (relative stereo), for which the result in the assay with Mus musculus [7] and with Mus musculus [5] was inactive. For the same compound, in the assay on Mus musculus [6], the inhibition in vivo at 100 mg/kg was found to be 79.7%.
As to `Cc1ccc2c(c1)[C@H]1CN(CCO)CC[C@@H]1N2` (relative stereo), the outcome in the assay with Mus musculus [7] and in the assay on Mus musculus [5] was inactive. In the assay on Mus musculus [6], the inhibition in vivo at 100 mg/kg was -5.6%.
In the case of `CC(=O)CCN1CC[C@@H]2Nc3ccc(C)cc3[C@H]2C1` (relative stereo), in the assay on Mus musculus [7], the result was inactive. In addition, in the assay on Mus musculus [6], the inhibition in vivo at 100 mg/kg is -15.5%.
